The source of these data is article PMC8261488, “Contraceptive progestins with androgenic properties stimulate breast epithelial cell proliferation” (EMBO Molecular Medicine, 2021).

Data set [1] deals with human breast epithelium. Conditions: female, mouse, in vivo, 8 months.
Description: All the engrafted glands were processed for histological analysis and H&E stained.
(§3) Mice were anesthetized by intraperitoneal injection with 10 mg/kg xylazine and 90 mg/kg ketamine (Graeub) and injected intraductally with 10 μl cell suspension per gland. Bioluminescence imaging was performed as described (Sflomos et al, 2016). After 3–10 weeks, when bioluminescence from individual glands reached 10^7 total flux (p/s/cm2/sr), animals were assigned to different treatment groups and hormone pellets implanted subcutaneously. Enzalutamide (Selleckchem, Catalog No. S1250) dissolved in 15% DMSO in PEG300 was injected intraperitoneally 3 times/week at 30 mg/kg.
Data set [2] deals with endogenous hormone levels in mice. In words: Endogenous steroid hormone plasma levels in treated host mice by LC-MS. The data set is classed as in vivo, mouse. To be noted: xenografted NSG females with pellets. The source says: Next, we assessed whether progesterone and progestins differentially affected endogenous hormone levels in mice. Plasma 17‐β‐estradiol levels were not affected by any of the treatments (Fig 4H). […] Plasma testosterone levels were not altered by any treatment with the exception of DSP, which decreased them (Fig 4H). Thus, prolonged exposures to progestins differentially affect endogenous progesterone plasma levels and DSP decreases testosterone plasma levels in host mice.

In data set [3] the test system is Rankl. In words: Rankl transcript levels by RT-PCR in mouse mammary organoids stimulated ex vivo. The data set is classed as cell-based.
The subject of data set [4] is HBECs. The data set can be described thus: MKI67/Ki67 expression in xenografted HBECs. The data set is classed as in vivo, human. Conditions: 3 weeks of treatment, at endpoint. For orientation: A xenograft is tissue or cells of one species grown in another, often human tumour cells in immunodeficient mice.
For data set [5], the system named is AR. Further details: method as in earlier work. Conditions: various assays, ref Fuhrmann et al, 1995, Muhn et al, Bouchard, 2005, Mishell, 2008, Schneider et al, 2009, Africander et al, 2011, Louw‐du Toit et al, 2017; cited from earlier work.
Data set [6] concerns KLK3. In words: KLK3 mRNA in xenografted HBECs by RT-PCR with human-specific primers. The data set is classed as in vivo. To be noted: 3 weeks of treatment (Fig 5H). The text has this: Consistent with AR and PR sharing a common hormone response element (Claessens et al, 1996), KLK3 was induced upon progestin stimulation. […] This is in agreement with previous findings that KLK3 expression is under the control of both androgens and progestins in T47D cells (Zarghami et al, 1997).
(§1) Next, we sought for a readout of in vivo cell proliferation different from radiance. […] Given that MKI67 expression could replace the luciferase measurements as a readout, we used a modified experimental setup for a second round of experiments. We derived HBECs from viably frozen mammoplasty samples (Appendix Table S3) and engrafted them to different mammary glands of NSG females without viral infection. Four months later, the 24 recipient females, each engrafted with 5 different mammoplasties received pellets containing either vehicle, progesterone, or 1 of 6 progestins for 21 days. At sacrifice, xenografted glands were histologically sectioned and cell proliferation was quantified using co‐IF with anti‐MKI67 and anti‐hECAD antibodies. For one of the mammoplasties, we were able to obtain measurements for all experimental conditions (Fig 5I). […] For the remaining mammoplasties, between 3 and 8 different experimental conditions were successfully quantified (Appendix Table S4). […] CPA (P < 0.0001) decreased proliferation, whereas CMA and DSP had no effect (Fig 5K). As AR signaling increases AR protein levels, we performed co‐IF for AR and hECAD as another means to assess AR signaling activity.
Human breast microstructures and mouse organoids were homogenized in Trizol (Invitrogen). Aqueous phase containing RNA was chloroform extracted and processed with miRNeasy extraction kit (Qiagen). cDNA was synthesized using random p(dN)6 primers (Roche) and MMLV reverse transcriptase (Invitrogen). SYBR Green PCR Core Reagent System (Qiagen) was used for semi‐quantitative real time (RT‐PCR) using the following primers.

The subject of data set [7] is AR. In words: In vivo growth of LNG-treated HBEC xenografts transduced with shAR or sh scramble. Further details: species or system human. Conditions: within 60 days. The source says: To further test the requirement for AR in the context of progestin‐driven proliferation, we took a genetic approach and down modulated AR expression in freshly isolated HBECs using a GFP‐luciferase2‐shAR or GFP‐luciferase2‐sh scramble expressing lentivirus. […] Double IF with anti‐GFP and anti‐AR antibodies and analysis by image quantification confirmed the down regulation of AR protein levels in the shAR infected cells identified based on GFP co‐expression (Fig 7E and F).

Data set [8] relates to HBECs. The data set can be described thus: In vivo growth of intraductal HBEC xenografts measured by radiance.
Description: To compare the effects of progesterone and different progestins on HBECs in vivo, we infected single cell suspensions obtained from fresh reduction mammoplasty specimens with GFP‐luciferase2‐expressing lentiviruses. The infected cell mixture was grafted intraductally to up to 5 glands of as many recipients as possible. The engraftment and growth of the xenografted cells were monitored weekly by in vivo imaging. When radiance reached > 10E07 on average per mammary gland, 60‐day‐release pellets were implanted subcutaneously, usually within 3–10 weeks after cell injection. At sacrifice, blood was collected and plasma levels of the administered compounds as well as endogenous steroid hormones were determined by liquid chromatography‐mass spectrometry (LC‐MS) (Laszlo et al, 2019).
Next, the in vivo growth of HBEC xenografts stimulated with progesterone or different progestins was analyzed. […] In addition, the fold change radiance of treated versus untreated samples at endpoint was calculated (Fig 5A–C).
as §3
Pellets were prepared by mixing the required amount of part A, MP3745/E81949 and part B, MP3744/E81950 of low consistency silicon elastomer (MED‐4011) and hormone powder to homogeneity. Mix was transferred to a syringe and incubated at 37°C overnight. The silicon‐hormone mass was removed from the syringe and cut to pieces, as described (Duss et al, 2007). The original protocol was adapted for different doses as described below.
Data set [9] concerns HBECs. In words: MKI67/Ki67 expression in xenografted HBECs. Conditions: 21 days pellets; for cell proliferation (KI67 and hECAD double+ cells), overall analysis: HBECs from 11 different patients; for cell proliferation (KI67 and hECAD double+ cells): one mammoplasty (M310). The data set is classed as in vivo, human.
Description: as §1
(§2) Tissues were fixed for 2 h at room temperature in 4% paraformaldehyde and paraffin‐embedded. Dewaxed and rehydrated paraffin sections were pretreated in 10 mM Na citrate (pH 6.0) at 95° for 20 min. Blocking was performed with 1% BSA for 60 min. Primary antibodies used were as follows: Ki67 (rabbit α‐Ki67, clone Sp6, Spring Amsbio, dilution 1:200), ER (rabbit α‐ER, clone Sp1, Zytomed RTU), PR (rabbit α‐PR, clone 1E2, Ventana RTU), AR (rabbit α‐AR, clone SP107, Thermo Fisher, diluted 1:200), CK7 (rabbit α‐CK7, clone Sp52, Abcam, diluted 1:500), CK19 (mouse KS19.2 (Z105.6), American Research Products Inc. (diluted 1:50), and mouse α‐ECAD (clone G‐10, sc‐8426, diluted 1:100). For IHC, chromogenic revelation was performed with ChromoMap DAB kit (Roche Diagnostics, Switzerland) and sections were counterstained with Mayer’s hematoxylin. For fluorescence microscopy, nuclei were counterstained with DAPI (Sigma). IHC for ER, PR, and AR was performed on Discovery Ventana ULTRA (44). IHC images were acquired on Leica DM 2000 with Leica DFC450 C camera. IF images were acquired on Zeiss LSM700 confocal microscope. Slides were scanned with Olympus VS120‐L100 slide scanner with 20×/0.75 objective and Pike F505 C Color camera. Images were loaded into QuPath using the BioFormats extension (Bankhead et al, 2017).

Data set [10] deals with HBECs. The data set can be described thus: In vivo growth of HBEC xenografts treated with LNG with or without enzalutamide. Further details: species or system human. Conditions: 3 PDXs, radiance.
Description: Mice were anesthetized by intraperitoneal injection with 10 mg/kg xylazine and 90 mg/kg ketamine (Graeub) and injected intraductally with 10 μl cell suspension per gland. […] After 3–10 weeks, when bioluminescence from individual glands reached 10^7 total flux (p/s/cm2/sr), animals were assigned to different treatment groups and hormone pellets implanted subcutaneously. Enzalutamide (Selleckchem, Catalog No. S1250) dissolved in 15% DMSO in PEG300 was injected intraperitoneally 3 times/week at 30 mg/kg.
The subject of data set [11] is women. To be noted: cited from earlier work.
In data set [12] the test system is Wnt4. The data set can be described thus: Wnt4 transcript levels by RT-PCR in mouse mammary organoids stimulated ex vivo. Type of data set: cell-based.
For data set [13], the system named is AR. The data set can be described thus: Percentage of AR+ cells in xenografted HBECs by co-IF for AR and hECAD. To be noted: 21 days pellets, HBECs from 11 different patients. Type of data set: in vivo, human.
Description: as §1, §2

The test system of data set [14] is human breast tissue microstructures (EpCAM+ cells). In words: RNA sequencing of EpCAM+ cells from human breast tissue microstructures stimulated ex vivo. The data set is classed as cell-based. To be noted: 14–18 h exposure, n = 3. The text has this:
Having ascertained with mammary tissue from inbred mice that androgenic and anti‐androgenic progestins have different effects on the expression of important PR target genes, we set out to assess the transcriptional response to PR signaling in the human breast epithelium. In view of our goal to perform in vivo experiments with the natural ligand progesterone, we compared the effects of progesterone to those of its stable analog R5020 which is commonly used for in vitro experiments on breast epithelial cells. For this, we used an ex vivo approach with human breast tissue similar to the mouse organoid technique used above that maintains hormone responsiveness (Tanos et al, 2013; Sflomos et al, 2015). In brief, 3 fresh mammoplasty tissue from women with follicular phase progesterone levels were cut into 1 mm^3 pieces and aliquoted for digestion with collagenase and concomitant exposure to either vehicle, R5020, or progesterone for 14–18 h. Tissue microstructures that contain epithelial cells, immune cells, and fibroblasts in varying proportions were recovered. To reduce interpatient variation as far as it relates to different ratios of various cell types, at the end of the treatment, the tissue microstructures were dissociated to single cells and enriched for epithelial cells by FACS sorting with antibodies against the epithelial cell surface marker EpCAM (Fig 2A). The EpCAM^+ cells were processed for RNA sequencing. […] Progesterone affected expression levels of 65 genes, whereas R5020 affected 112 genes, including RANKL (adj.P < 0.05) (Appendix Fig S2A). More than 90% of the progesterone‐induced gene expression changes were induced by R5020 (Fig 2C). […] R5020 induced higher‐fold changes as indicated by the estimated slope of the curve being > 1 (P < 0.0001). […]
All experiments conformed to the principles set out in the WMA Declaration of Helsinki and the Department of Health and Human Services Belmont Report. […] Human tissue samples were mechanically and enzymatically dissociated, single cells were prepared, counted, and spin infected using Lenti‐ONE CMV‐GFP(2A)Luc2 WPRE VSV, V621004001, or pR980 Luc2GFP (GEGTECH) at a multiplicity of infection of 1 at 2.500 rpm for 3 h at room temperature in 500 μl of serum‐free medium. […]
RNAseq libraries were prepared using Truseq Stranded RNA producing single‐end reads of 100 bp and sequenced on Illumina Hiseq 2500 instrument. […]
Sequencing reads were quality controlled using FastQC (v0.11.8) (Wingett & Andrews, 2018). Mouse raw reads were aligned to the mouse genome (mm9) and human raw reads to the human genome (hg19) using TopHat (v2.0.11) (Kim et al, 2013). […]

The conditions of data set [15]: NSG, mouse, in vivo.
Description: At sacrifice, blood was collected and plasma levels of the administered compounds as well as endogenous steroid hormones were determined by liquid chromatography‐mass spectrometry (LC‐MS) (Laszlo et al, 2019).
Plasma steroid concentrations were measured by LC–MS High Resolution (Q‐Executive, Thermo Fisher Scientific) for testosterone, progesterone, and 17β‐estradiol as described in (Cagnet et al, 2018) and for progestins as described in (Laszlo et al, 2019).
Where [16] appears, read: BalbC females, 6 h of stimulation.
Setting [17] is: BalbC-derived organoids, 24 h of stimulation.
Where [18] appears, read: 60 days of treatment, subcutaneous pellets.

Regarding `C#C[C@]1(O)CC[C@H]2[C@@H]3CCC4=CC(=O)CC[C@@H]4[C@H]3CC[C@@]21CC` [LNG, levonorgestrel], the “morphologic changes in xenografts (H&E)” value in data set [1] was 3 or 4 grafts showed diffuse and in some cases marked acinar proliferation. Besides, the “endogenous progesterone plasma levels (estrous cycle-related variation)” value in data set [2] is listed as “did not affect”. Besides, the “Rankl transcript levels over vehicle-treated control” value in [3] (setting [16]) worked out at 27.7 fold. The Rankl transcript induction in data set [3] (setting [17]) stood at 253.9 fold. Further, the Rankl transcript induction in [3] (C57Bl/6 mice, 6 h, 20 nM) was 21.6 fold. Moreover, in data set [4], the “MKI67 expression at mRNA level” value is given as “increased” and the “MKI67 expression at protein level” value is “increased”. Besides, the “androgenic / anti-androgenic activity” value in data set [5] is recorded as “androgenic activity”. Also, in data set [6], the KLK3 transcript expression result is reported as “increased”. For the same molecule, the “reduction of LNG-induced radiance by down regulation of AR expression (shAR)” value in data set [7] was 22%. Besides, the “cell proliferation by radiance measurements” value in data set [8] (3 weeks of treatment, mammoplasty M354) is reported as “stimulated cell proliferation”. Besides, the “growth (course of radiance) of engrafted HBECs versus control” value in data set [8] (setting [18]) is “increased growth”. Also, in data set [9], the “cell proliferation (KI67 and hECAD double+ cells), overall analysis” value is reported as “increased”; the “cell proliferation (KI67 and hECAD double+ cells)” value was “significantly increased”. Moreover, the “proliferation rates of PDXs upon LNG exposure” value in data set [10] was “increased the proliferation rates in 2 of 3 PDXs”. Also, the breast cancer risk result in data set [11] (women taking androgenic progestins, ref Rossouw et al, 2002) is recorded as “elevated breast cancer risk”. In [11] (women, ref Hunter et al, 2010), the “RR of breast cancer” value is on record as 3.05 and the “lobular breast cancer risk compared to the general population” value is given as 1.45. For the same molecule, the “RR for ductal breast cancer” value in data set [11] (women, ref Soini et al, 2016) is recorded as 1.20. For the same molecule, in data set [12] (setting [16]), the “Wnt4 transcript levels over vehicle-treated control” value worked out at 4.8 fold. Further, the Wnt4 transcript induction in data set [12] (setting [17]) stood at 36.3 fold. Further, the Wnt4 transcript induction in data set [12] (C57Bl/6 mice, 6 h, 20 nM) is given as 4.3 fold.
For the molecule `CC(=O)[C@H]1CC[C@H]2[C@@H]3CCC4=CC(=O)CC[C@]4(C)[C@H]3CC[C@]12C` [progesterone], the “percentage of AR+ cells (AR index)” value in data set [13] is listed as “decreased”. In data set [8] (setting [18]), the “growth (course of radiance) of engrafted HBECs versus control” value was “increased” and the “relative radiance at endpoint over control (FC)” value was 1.3 fold. In addition, in data set [9], the “cell proliferation (KI67 and hECAD double+ cells), overall analysis” value is listed as “increased”; the “cell proliferation (KI67 and hECAD double+ cells)” value was “significantly increased”. Further, the “association with breast cancer risk” value in data set [11] is recorded as “not associated with breast cancer risk”. In [14], the “RANKL expression (variant stabilized gene expression values)” value was “increased expression” and the “WNT4 expression (variant stabilized gene expression values)” value is listed as “increased expression”. Further, the “plasma progesterone relative to average levels in control mice” value in [15] was determined as 4.9 times.
